# Columns and labels:
# [1] = tested on: Phaedon cochleariae; assay: Phaedon cochleariae - spray test; format: in vivo; settings: larvae on Chinese cabbage leaf discs, after 7 days
# Method in brief: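 Mortality of mustard beetle larvae was scored as % at day 7 on Brassica pekinensis leaf discs. Discs had been treated by spraying at the desired concentration, using an acetone/dimethylformamide solution diluted in water with 1000 ppm alkylaryl polyglycol ether, and dried before larvae were added.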
# [2] = tested on: Ctenocephalides felis; assay: Ctenocephalides felis - oral test; format: in vivo; settings: application rate 100 ppm in citrated cattle blood; after 2 days
# Method in brief: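 Roughly 20 unfed adult C. felis imbibe compound-dosed citrated cattle blood (DMSO formulation) across parafilm from a cylinder above their gauze chamber; percentage mortality recorded at day 2.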
# [3] = tested on: Amblyomma hebraeum; assay: Amblyomma hebaraeum test (tick nymphs, immersion); format: in vivo; settings: application rate 100 ppm; tick nymphs immersed one minute; after 42 days
# Method in brief: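 Mortality (%) is read 42 days post-treatment, where 0% means no ticks and 100% all ticks killed. Nymphs were dipped for 1 min into the test dilution (DMSO stock diluted with water) and afterwards stored on filter paper under controlled climate.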
# [4] = tested on: Myzus persicae; assay: Myzus persicae - spray test; format: in vivo; settings: Chinese cabbage leaf discs, after 6 days
# Method in brief: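 Mortality of the green peach aphid, as % killed, was read 6 days after spraying infested Brassica pekinensis leaf discs. Compound formulated in acetone/dimethylformamide and made up with emulsifier-containing (1000 ppm) water.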
# [5] = tested on: Musca domestica; assay: Musca domestica test; format: in vivo; settings: application rate 100 ppm; adult houseflies; after 2 days
# Method in brief: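 Water-diluted DMSO stock of compound, mixed onto a sugar-treated sponge, served as the sole exposure route for ten adult houseflies. Kill percentage scored at 2 days.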
# [6] = tested on: Ctenocephalides felis; assay: Ctenocephalides felis - in vitro contact tests with adult cat fleas; format: in vivo; settings: application rate 5 μg/cm2 (=500 g/ha); after 48 h; fleas dead or moribund
# Method in brief: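 Efficacy, as percentage of fleas dead or moribund, was scored at 48 h by knocking fleas to the tube base. Exposure was by contact with a dried acetone film of compound at 5 μg/cm^2 area dose; 5–10 adults per tube, room temperature, ambient humidity.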
# [7] = tested on: Spodoptera frugiperda; assay: Spodoptera frugiperda - spray test; format: in vivo; settings: caterpillars on maize leaf discs, after 7 days
# Method in brief: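 Percent mortality of Spodoptera frugiperda caterpillars scored 7 days after placing them on dried maize leaf discs sprayed at the desired concentration. Spray formulation: compound dissolved in acetone/dimethylformamide, made up with water containing 1000 ppm emulsifier.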
# [8] = logP determination by HPLC on a reversed-phase column (C18); format: physicochemical; settings: HPLC-MS method a)
# [9] = tested on: Boophilus microplus; assay: Boophilus microplus - injection test; format: in vivo; settings: application rate 20 μg/animal; injection into engorged adult female ticks; after 7 days
# Method in brief: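 Five engorged adult female cattle ticks each received a 1 μl abdominal injection of compound solution in dimethyl sulphoxide. Fertile egg laying was assessed at 7 days, with doubtful eggs incubated about 42 days until hatch. 0% efficacy means all eggs fertile.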
# [10] = tested on: Tetranychus urticae; assay: Tetranychus urticae - spray test, OP-resistant; format: in vivo; settings: bean leaf discs, after 6 days
# Method in brief: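 Mortality (%) read on day 6 after spraying Phaseolus vulgaris leaf discs carrying all mite stages with formulations at the desired concentration. Formulation: active ingredient in acetone plus dimethylformamide, made up with emulsifier-containing water (1000 ppm alkylaryl polyglycol ether).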
# [11] = tested on: Lucilia cuprina; assay: Lucilia cuprina test; format: in vivo; settings: application rate 100 ppm; L1 larvae; after 2 days
# Method in brief: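 Mortality (%) of first-instar blowfly larvae, about 20 per vessel, recorded 2 days after exposure to compound-treated minced horsemeat. Compound dissolved in dimethyl sulphoxide, then water-diluted to the desired concentration.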
# [12] = tested on: Boophilus microplus Parkhurst strain, SP-resistant; assay: Boophilus microplus - dip test; format: in vivo; settings: application rate 100 ppm; dip of engorged adult female ticks; after 7 days
# Method in brief: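 Compound dissolved in DMSO, diluted with water, and used to fully wet groups of 8-10 engorged female cattle ticks (SP-resistant Parkhurst strain). Fertile egg laying assessed at 7 days, doubtful eggs held ~42 days until hatch; 0% means all eggs fertile.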
# [13] = tested on: Rhipicephalus sanguineus; assay: Rhipicephalus sanguineus - in vitro contact tests with adult brown dog ticks; format: in vivo; settings: after 48 h, ticks dead or moribund
# Method in brief: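 Efficacy, scored after 48 h, is the % of adult ticks dead or moribund, i.e. unable to climb away on a 45-50° C hotplate within 5 min. Tubes held 5-10 ticks in the dark at room temperature, on an acetone-applied coating of 5 μg/cm^2 (900 ppm solution).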
# [14] = reversed-phase column (C18), Table I-T3
SMILES,efficacy ([1]; application rate 500 g/ha) [%],efficacy (kill) [2] [%],efficacy (kill) [3] [%],efficacy ([4]; application rate 500 g/ha) [%],efficacy (kill) [5] [%],efficacy [6] [%],efficacy ([7]; application rate 500 g/ha) [%],logP^a) [8],"logP^a) [8, 14]",efficacy (laying of fertile eggs) [9] [%],efficacy ([10]; application rate 500 g/ha) [%],efficacy (kill) [11] [%],efficacy (laying of fertile eggs) [12] [%],efficacy ([13]; application rate 5 μg/cm2) [%],efficacy ([1]; application rate 100 g/ha) [%],efficacy ([4]; application rate 100 g/ha) [%],efficacy ([7]; application rate 100 g/ha) [%],efficacy ([10]; application rate 100 g/ha) [%],efficacy ([13]; application rate 0.2 μg/cm2) [%]
N#CC1(NC(=O)c2cc(-c3cnn(-c4c(Cl)cc(C(F)(C(F)(F)F)C(F)(F)F)cc4Cl)c3)cnc2Cl)CC1 [I-T3-43],100,100,100,100,100,100,100,3.8,3.8,100,100,100,100,80,,,,,
Cc1cc(C(F)(C(F)(F)F)C(F)(F)F)cc(C(F)(F)F)c1-n1cc(-c2ccc(Cl)c(C(=O)NC3CC3)c2)cn1 [I-T3-54],,100,100,,100,100,,4.4,4.4,100,,100,100,100,100,100,100,100,
Cc1cc(C(F)(C(F)(F)F)C(F)(F)F)cc(C(F)(F)F)c1-n1cc(-c2ccc(Cl)c(C(=O)NC3(C#N)CC3)c2)cn1 [I-T3-55],,100,100,,100,100,,4.3,4.3,100,,100,100,100,100,100,100,100,
Cc1cc(C(F)(C(F)(F)F)C(F)(F)F)cc(Cl)c1-n1cc(-c2ccc(Cl)c(C(=O)NC3(C#N)CC3)c2)cn1 [I-T3-64],,100,100,,100,100,,4.2,4.2,100,,100,100,,100,90,100,100,80
CCc1cc(C(F)(C(F)(F)F)C(F)(F)F)cc(Cl)c1-n1cc(-c2ccc(Cl)c(C(=O)NC3CC3)c2)cn1 [I-T3-72],,100,100,,100,100,,4.6,4.6,100,,100,100,100,100,90,100,100,
CCc1cc(C(F)(F)C(F)(F)F)cc(C)c1-n1cc(-c2ccc(Cl)c(C(=O)NC3CC3)c2)cn1 [I-T3-81],,100,100,,90,100,,4.3,4.3,100,,100,100,100,100,90,100,100,

# — patent US10150737B2, “Compounds for controlling arthropods” (priority 2013, dated 2018)
